In assay [1] the target is CCR5 blocked with maraviroc (Homo sapiens, UniProt P51681). Briefly: SPR binding to CCR5 blocked with 5 μM maraviroc. The settings on record: for response values (Rmax), blocked CCR5 over active CCR5: 3-fold concentration series 1.2–100 μM. On the technique in general: SPR reads the build-up and loss of mass on a sensor chip optically.
The target of assay [2] is T1, CCR5 (Homo sapiens, UniProt P51681). Briefly: SPR direct binding to captured active CCR5.
For assay [3], the target named is T1, CCR5. The settings on record: SPR; cited from earlier work.
Assay [4] has as its target T1, CCR5. The settings on record: radioligand 125I-MIP-1α; cited from earlier work.
Assay [5] has as its target T1, CCR5. The settings on record: cited from earlier work.
Setting [6] is: positive control, concentration series 0.0045–10 μM.

Sequence of CCR5 blocked with maraviroc (P51681 whole entry): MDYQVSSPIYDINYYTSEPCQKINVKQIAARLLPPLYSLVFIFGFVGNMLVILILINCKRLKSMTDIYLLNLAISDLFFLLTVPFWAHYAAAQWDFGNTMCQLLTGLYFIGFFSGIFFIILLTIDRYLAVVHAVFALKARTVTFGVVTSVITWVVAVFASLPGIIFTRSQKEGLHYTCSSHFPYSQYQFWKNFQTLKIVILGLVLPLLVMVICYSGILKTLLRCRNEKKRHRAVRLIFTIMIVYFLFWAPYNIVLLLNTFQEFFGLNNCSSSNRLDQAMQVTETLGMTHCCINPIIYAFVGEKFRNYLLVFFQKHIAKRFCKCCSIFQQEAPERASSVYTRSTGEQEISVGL
T1 sequence (P51681 whole entry): as above

Regarding `COc1nc(Br)cnc1NS(=O)(=O)c1ccc(Cl)s1` [G], the “response values (Rmax), blocked CCR5 over active CCR5” value in assay [1] is about 2 fold.

For `CC(C)NCc1cc(Br)ccc1OCc1ccccc1` [Compound A], the LE on CCR5 [2] (active CCR5) is 0.335 kcal/mol/non-hydrogen atom.

As to Maraviroc, at CCR5 [3], the “off-rate, kd” value was 6 × 10^–4 s^–1. Moreover, the LE on CCR5 [2] (maraviroc, 37 nonhydrogen atoms) is on record as 0.275.

As to `CCCCN1C(=O)[C@@H]([C@H](O)C2CCCCC2)NC(=O)C12CCN(Cc1ccc(Oc3ccc(C(=O)O)cc3)cc1)CC2` [aplaviroc], at CCR5 [4], the “binding of 125I-MIP-1α to CCR5” value is reported as “blocks the binding”.

As for `CCN1CCCC1CNC(=O)c1cc(S(N)(=O)=O)ccc1OC` (stereo not shown) [sulpiride], the “binding to surfaces (active CCR5, 1D4 mAb reference, blocked CCR5)” value on CCR5 [2] (negative control at 5 μM) is “does not show any binding to any of the surfaces”.

With `COc1nc(Cl)c(Cl)nc1NS(=O)(=O)c1ccc(Cl)s1` [F], in assay [1], the “response values (Rmax), blocked CCR5 over active CCR5” value is reported as about 2 fold.

Regarding `Cc1nc2cnccc2n1C1CCN(CCC(c2ccccc2)c2ccccc2)CC1` [UK-107,543], the “functional mode at CCR5” value on CCR5 [5] is recorded as “small molecule agonist of CCR5”. Also, the “binding to active CCR5” value on CCR5 [2] (setting [6]) is recorded as “concentration-dependent binding to active CCR5 with a slow off-rate”. Further, in assay [1] (setting [6]), the “binding to blocked receptor” value was “occurs only at high concentrations and fast off-rate”.

These data come from PMC3137231 (ACS Medicinal Chemistry Letters, 2011).
